Assay results as given in paper PMC10840383, “Clinical features, functional consequences, and rescue pharmacology of missense GRID1 and GRID2 human variants” (Human Molecular Genetics, 2023).
Substitutions are numbered along the chain they refer to.

Legend:
Format in all cases: cell-based
GluD2-T649A = target: T1, GluD2-T649A (Rattus norvegicus, UniProt Q63226, T649A); assay: TEVC of constitutive current, Xenopus oocytes expressing GluD2-T649A; conditions: for IC50: inhibitors of constitutively active GluD2 current, read-out: T649A IC50
T1 construct: expressed in transfected cells; host or cells: Xenopus laevis oocytes injected with cRNA
T1 sequence (Q63226 24-1007 T649A): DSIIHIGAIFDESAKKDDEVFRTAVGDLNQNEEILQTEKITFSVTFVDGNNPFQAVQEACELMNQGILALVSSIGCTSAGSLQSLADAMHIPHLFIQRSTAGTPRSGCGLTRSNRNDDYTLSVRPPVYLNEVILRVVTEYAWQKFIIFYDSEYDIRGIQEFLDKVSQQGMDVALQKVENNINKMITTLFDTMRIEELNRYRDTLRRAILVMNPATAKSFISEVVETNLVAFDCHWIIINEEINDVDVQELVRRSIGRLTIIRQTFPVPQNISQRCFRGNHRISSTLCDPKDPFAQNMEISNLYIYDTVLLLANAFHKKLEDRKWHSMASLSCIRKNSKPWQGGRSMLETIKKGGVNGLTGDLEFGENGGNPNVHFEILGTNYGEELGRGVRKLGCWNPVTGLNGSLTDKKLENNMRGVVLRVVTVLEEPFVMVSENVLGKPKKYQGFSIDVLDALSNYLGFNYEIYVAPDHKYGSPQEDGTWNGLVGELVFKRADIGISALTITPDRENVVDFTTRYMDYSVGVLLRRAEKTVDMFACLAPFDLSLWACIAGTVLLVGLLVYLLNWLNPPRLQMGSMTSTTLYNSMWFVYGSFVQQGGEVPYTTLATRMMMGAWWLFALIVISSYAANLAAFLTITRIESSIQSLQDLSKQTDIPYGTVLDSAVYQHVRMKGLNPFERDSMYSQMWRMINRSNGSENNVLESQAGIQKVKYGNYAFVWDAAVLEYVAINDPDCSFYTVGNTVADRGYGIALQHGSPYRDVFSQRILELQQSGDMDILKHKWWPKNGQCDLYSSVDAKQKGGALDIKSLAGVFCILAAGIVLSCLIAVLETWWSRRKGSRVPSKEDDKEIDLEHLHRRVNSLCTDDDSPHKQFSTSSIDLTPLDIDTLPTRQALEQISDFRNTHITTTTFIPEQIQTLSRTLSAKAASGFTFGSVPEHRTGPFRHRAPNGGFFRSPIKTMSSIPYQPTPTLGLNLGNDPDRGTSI

GluD2-A654T = target: T2, GluD2-A654T (Rattus norvegicus, UniProt Q63226, A654T); assay: TEVC of constitutive current, Xenopus oocytes expressing GluD2-A654T (lurcher); conditions: for IC50: inhibitors of constitutively active GluD2 current, read-out: A654T IC50
T2 construct: expressed in transfected cells; host or cells: Xenopus laevis oocytes injected with cRNA
T2 sequence (Q63226 24-1007 A654T): T1 sequence (Q63226 24-1007 T649A) with A626T, A631T

[1] = test system: constitutively active GluD1 and GluD2 receptor variants; assay: Inhibition of constitutive currents of GluD variants by channel blockers, Xenopus oocytes
Protocol: Xenopus laevis oocytes were prepared from ovaries purchased from Xenopus 1 (Dexter, MI) as previously described, [68] and incubated at 16°C in culture Barth’s solution (in mM) 88 NaCl, 2.4 NaHCO3, 1 KCl, 0.33 Ca(NO3)2, 0.41 CaCl2, 0.82 MgSO4, 10 HEPES, pH 7.4 with NaOH, supplemented with 1 U/ml penicillin and 1 μg/ml streptomycin. Oocytes were injected with approximately 5–40 ng RNA per oocyte and then incubated at 16–19°C for 1–3 days in culture Barth’s solution. The levels of GluD2-A654D and GluD2-A654T cRNA were reduced to 1.5 ng and 2.5 ng, respectively, due to oocyte toxicity. Two-electrode voltage clamp (TEVC) recordings were performed as previously described. Unless otherwise specified, extracellular solution contained (in mM) 90 NaCl, 3 KCl, 0.5 BaCl2, 0.01 EDTA, 10 HEPES, and was brought to pH 7.4 with NaOH. The oocytes were placed in a dual track recording chamber and gravity perfused with solution exchange controlled via a computer-driven 8-valve positioner (Digital MVP Valve). […] Recording electrodes were filled with 0.3 M KCl, and currents were recorded with membrane voltage held at −40 mV. To establish constitutive activity of recombinant receptors when compared to wild type receptors, we used the oocyte recording solution described above, but with 90 mM N-methyl-D-glucamine (NMDG) chloride replacing 90 mM NaCl. […] In addition to establishing constitutive activity, 90 mM NMDG was used in recording protocols with drug treatment to obtain the percent maximum theoretical inhibition of a compound, or to determine the relative degree of drug potentiation. For Ca^2+ concentration-response curves, choline chloride was used to maintain equimolar concentrations of Cl^− ions in the extracellular solution across the changing concentrations of calcium chloride. All compounds used in this study for concentration-response oocyte recordings were dissolved in deionized water as 50–100 mM stock solutions. In some rescue pharmacology experiments, we substituted 1 mM CaCl2 for 0.5 mM BaCl2 to evaluate Ca^2+-dependent control of receptor responses.

SMILES | Effect on constitutive current, in words (GluD2-T649A) | Fold-shift (IC50 A654T/IC50 T649A) (GluD2-T649A) | IC50 (GluD2-T649A) [µM] | Effect on constitutive current, in words (GluD2-A654T) | IC50 (GluD2-A654T) [µM] | Inhibition of constitutive currents, in words [1]
C[C@@H](N)C(=O)O [D-Alanine, D-alanine] | inhibited | 1.2 | 1300 | inhibited | 1600 | –
NCC(=O)O [Glycine] | inhibited | – | – | inhibited | – | –
N[C@@H](CC(=O)O)C(=O)O [L-Aspartic Acid, L-aspartic acid] | inhibited | 19 | 270 | inhibited | 5000 | –
CNC1(c2ccccc2Cl)CCCCC1=O (stereo not shown) [ketamine] | – | – | – | – | – | memantine inhibits GluD receptor constitutively active currents more effectively than ketamine
